Measured values published in ChEMBL document CHEMBL1201861, “Genomics of Drug Sensitity in Cancer screening data, Wellcome Trust Sanger Institute”.

Columns and labels:
Experiment in all cases: cells
[1] = test system: DMS-114; assay type: functional, cell-based, Homo sapiens; conditions: Homo sapiens, DMS-114
[2] = test system: IST-MES1; assay type: functional, cell-based, Homo sapiens; conditions: Homo sapiens, IST-MES1;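 note: growth inhibition of IST-MES1 cells, measured with a cell viability assay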
Description: SANGER: Inhibition of human IST-MES1 cell growth in a cell viability assay.

[3] = test system: L-428; assay type: functional, cell-based, Homo sapiens; conditions: Homo sapiens, L-428
Description: SANGER: Inhibition of human L-428 cell growth in a cell viability assay.

[4] = test system: NB6; assay type: functional, cell-based, Homo sapiens; conditions: Homo sapiens, NB6;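 note: growth inhibition of NB6 cells, read out by a cell viability assay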
Description: SANGER: Inhibition of human NB6 cell growth in a cell viability assay.

[5] = test system: KP-N-YS; assay type: functional, cell-based, Homo sapiens; conditions: Homo sapiens, KP-N-YS;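 note: cell viability assay measuring inhibition of cell line growth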
Description: SANGER: Inhibition of human KP-N-YS cell growth in a cell viability assay.

[6] = test system: MZ2-MEL; assay type: functional, cell-based, Homo sapiens; conditions: Homo sapiens, MZ2-MEL;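 note: growth inhibition of MZ2-MEL cells read out with a cell viability assay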
Description: SANGER: Inhibition of human MZ2-MEL cell growth in a cell viability assay.

[7] = test system: SK-NEP-1; assay type: functional, cell-based, Homo sapiens; conditions: Homo sapiens, SK-NEP-1;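 note: growth inhibition of human SK-NEP-1 cells, read out by a cell viability assay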
Description: SANGER: Inhibition of human SK-NEP-1 cell growth in a cell viability assay.

[8] = test system: MC116; assay type: functional, cell-based, Homo sapiens; conditions: Homo sapiens, MC116;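 note: growth inhibition of MC116 cells, read out with a cell viability assay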
Description: SANGER: Inhibition of human MC116 cell growth in a cell viability assay.

[9] = test system: HCE-4; assay type: functional, cell-based; conditions: Homo sapiens;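 note: cell viability assay measuring inhibition of growth in the human HCE-4 cell line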
Description: SANGER: Inhibition of human HCE-4 cell growth in a cell viability assay.

[10] = test system: DOHH-2; assay type: functional, cell-based, Homo sapiens; conditions: Homo sapiens, DOHH-2;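 note: growth inhibition of human DOHH-2 cells, read out with a cell viability assay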
Description: SANGER: Inhibition of human DOHH-2 cell growth in a cell viability assay.

[11] = test system: NCI-H1155; assay type: functional, cell-based, Homo sapiens; conditions: Homo sapiens, NCI-H1155;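 note: cell growth inhibition measured by a viability assay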
Description: SANGER: Inhibition of human NCI-H1155 cell growth in a cell viability assay.

[12] = test system: EW-1; assay type: functional, cell-based, Homo sapiens; conditions: Homo sapiens, EW-1;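 note: growth inhibition of the human EW-1 cell line, read out by a cell viability assay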
Description: SANGER: Inhibition of human EW-1 cell growth in a cell viability assay.

[13] = test system: BB30-HNC; assay type: functional, cell-based, Homo sapiens; conditions: Homo sapiens, BB30-HNC;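 note: growth inhibition of the cultured cell line, read out by a cell viability assay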
Description: SANGER: Inhibition of human BB30-HNC cell growth in a cell viability assay.

[14] = test system: EM-2; assay type: functional, cell-based, Homo sapiens; conditions: Homo sapiens, EM-2;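 note: growth inhibition of EM-2 cells, read out with a cell viability assay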
Description: SANGER: Inhibition of human EM-2 cell growth in a cell viability assay.

[15] = test system: NB69; assay type: functional, cell-based, Homo sapiens; conditions: Homo sapiens, NB69;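 note: growth inhibition of NB69 cells, determined by a cell viability assay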
Description: SANGER: Inhibition of human NB69 cell growth in a cell viability assay.

[16] = test system: SJSA-1; assay type: functional, cell-based, Homo sapiens; conditions: Homo sapiens, SJSA-1;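 note: growth inhibition of human SJSA-1 cells, read out through a cell viability measurement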
Description: SANGER: Inhibition of human SJSA-1 cell growth in a cell viability assay.

[17] = test system: GCIY; assay type: functional, cell-based, Homo sapiens; conditions: Homo sapiens, GCIY;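 note: growth inhibition of the human GCIY cell line, read out by a cell viability assay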
Description: SANGER: Inhibition of human GCIY cell growth in a cell viability assay.

[18] = test system: HDLM-2; assay type: functional, cell-based, Homo sapiens; conditions: Homo sapiens, HDLM-2;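 note: cell viability assay measuring suppression of HDLM-2 proliferation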
Description: SANGER: Inhibition of human HDLM-2 cell growth in a cell viability assay.

[19] = test system: TE-10; assay type: functional, cell-based, Homo sapiens; conditions: Homo sapiens, TE-10;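 note: growth inhibition of TE-10 cells, measured by a cell viability assay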
Description: SANGER: Inhibition of human TE-10 cell growth in a cell viability assay.

[20] = test system: A388; assay type: functional, cell-based; conditions: Homo sapiens;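 note: growth inhibition of human A388 cells, read out with a cell viability assay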
Description: SANGER: Inhibition of human A388 cell growth in a cell viability assay.

[21] = test system: UACC-257; assay type: functional, cell-based, Homo sapiens; conditions: Homo sapiens, UACC-257
Description: SANGER: Inhibition of human UACC-257 cell growth in a cell viability assay.

[22] = test system: NCI-H1355; assay type: functional, cell-based, Homo sapiens; conditions: Homo sapiens, NCI-H1355;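 note: growth inhibition of human NCI-H1355 cells, read out by a cell viability assay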
Description: SANGER: Inhibition of human NCI-H1355 cell growth in a cell viability assay.

[23] = test system: SK-N-FI; assay type: functional, cell-based, Homo sapiens; conditions: Homo sapiens, SK-N-FI;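 note: cell viability assay measuring growth inhibition of human SK-N-FI cells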
Description: SANGER: Inhibition of human SK-N-FI cell growth in a cell viability assay.

[24] = test system: U-87 MG; assay type: functional, cell-based, Homo sapiens, U-87MG ATCC; conditions: Homo sapiens, U-87 MG;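 note: growth inhibition of the cells measured with a viability assay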
Description: SANGER: Inhibition of human U-87-MG cell growth in a cell viability assay.

[25] = test system: K5; assay type: functional, cell-based, Homo sapiens; conditions: Homo sapiens, K5
Description: SANGER: Inhibition of human K5 cell growth in a cell viability assay.

[26] = test system: SW 954; assay type: functional, cell-based, Homo sapiens; conditions: Homo sapiens, SW 954;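 note: growth inhibition of SW954 human cancer cells, read out as cell viability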
Description: SANGER: Inhibition of human SW954 cell growth in a cell viability assay.

[27] = test system: DU-4475; assay type: functional, cell-based, Homo sapiens; conditions: Homo sapiens, DU-4475
Description: SANGER: Inhibition of human DU-4475 cell growth in a cell viability assay.

[28] = test system: SW982; assay type: functional, cell-based; conditions: Homo sapiens;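 note: growth inhibition of SW982 cells, read out with a cell viability assay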
Description: SANGER: Inhibition of human SW982 cell growth in a cell viability assay.

[29] = test system: JAR; assay type: functional, cell-based, Homo sapiens; conditions: Homo sapiens, JAR;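 note: growth inhibition of human JAR cells determined with a cell viability assay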
Description: SANGER: Inhibition of human JAR cell growth in a cell viability assay.

[30] = test system: NCI-H82; assay type: functional, cell-based, Homo sapiens; conditions: Homo sapiens, NCI-H82;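 note: growth inhibition of NCI-H82 cells, measured with a cell viability readout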
Description: SANGER: Inhibition of human NCI-H82 cell growth in a cell viability assay.

[31] = test system: NEC8; assay type: functional, cell-based, Homo sapiens; conditions: Homo sapiens, NEC8;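 note: growth inhibition of human NEC8 cells, read out by a cell viability assay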
Description: SANGER: Inhibition of human NEC8 cell growth in a cell viability assay.

[32] = test system: A498; assay type: functional, cell-based, Homo sapiens; conditions: Homo sapiens, A498;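 note: growth inhibition of human A498 cells, read out with a cell viability assay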
Description: SANGER: Inhibition of human A498 cell growth in a cell viability assay.

[33] = test system: BE-13; assay type: functional, cell-based, Homo sapiens; conditions: Homo sapiens, BE-13;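 note: growth inhibition of human BE-13 cells, measured with a cell viability assay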
Description: SANGER: Inhibition of human BE-13 cell growth in a cell viability assay.

[34] = test system: SNU-C2B; assay type: functional, cell-based; conditions: Homo sapiens;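 note: cell viability readout used to measure compound-driven suppression of SNU-C2B cell proliferation, IC50 marking half-maximal growth inhibition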
Description: SANGER: Inhibition of human SNU-C2B cell growth in a cell viability assay.

[35] = test system: BB65-RCC; assay type: functional, cell-based, Homo sapiens; conditions: Homo sapiens, BB65-RCC;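 note: growth inhibition of the cell line, measured with a cell viability assay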
Description: SANGER: Inhibition of human BB65-RCC cell growth in a cell viability assay.

[36] = test system: MV4-11; assay type: functional, cell-based, Homo sapiens, MV-4-11; conditions: Homo sapiens, MV4-11;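 note: cell viability readout measuring growth inhibition of human MV-4-11 cells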
Description: SANGER: Inhibition of human MV-4-11 cell growth in a cell viability assay.

[37] = test system: TGBC24TKB; assay type: functional, cell-based; conditions: Homo sapiens;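 note: growth inhibition of human TGBC24TKB cells, read out with a cell viability assay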
Description: SANGER: Inhibition of human TGBC24TKB cell growth in a cell viability assay.

[38] = test system: CGTH-W-1; assay type: functional, cell-based, Homo sapiens; conditions: Homo sapiens, CGTH-W-1;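 note: growth inhibition of human CGTH-W-1 cells measured by cell viability assay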
Description: SANGER: Inhibition of human CGTH-W-1 cell growth in a cell viability assay.

[39] = test system: C2BBe1; assay type: functional, cell-based, Homo sapiens; conditions: Homo sapiens, C2BBe1;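 note: growth inhibition of C2BBe1 cells, read out through a viability assay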
Description: SANGER: Inhibition of human C2BBe1 cell growth in a cell viability assay.

[40] = test system: MSTO-211H; assay type: functional, cell-based, Homo sapiens; conditions: Homo sapiens, MSTO-211H
Description: SANGER: Inhibition of human MSTO-211H cell growth in a cell viability assay.

[41] = test system: KNS-42; assay type: functional, cell-based; conditions: Homo sapiens;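 note: growth inhibition of KNS-42 cells, read out with a cell viability assay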
Description: SANGER: Inhibition of human KNS-42 cell growth in a cell viability assay.

[42] = test system: ES3; assay type: functional, cell-based, Homo sapiens; conditions: Homo sapiens, ES3;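 note: growth inhibition of ES3 cells, read out with a cell viability assay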
Description: SANGER: Inhibition of human ES3 cell growth in a cell viability assay.

[43] = test system: CW-2; assay type: functional, cell-based, Homo sapiens; conditions: Homo sapiens, CW-2;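 note: growth inhibition of CW-2 cells, read out by a cell viability assay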
Description: SANGER: Inhibition of human CW-2 cell growth in a cell viability assay.

[44] = test system: NCI-N87; assay type: functional, cell-based; conditions: Homo sapiens;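 note: growth inhibition of human NCI-N87 cells, read out with a cell viability assay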
Description: SANGER: Inhibition of human NCI-N87 cell growth in a cell viability assay.

[45] = test system: NB13; assay type: functional, cell-based, Homo sapiens; conditions: Homo sapiens, NB13;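 note: cell viability readout measuring growth inhibition of human NB13 cells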
Description: SANGER: Inhibition of human NB13 cell growth in a cell viability assay.

[46] = test system: A253 cell line; assay type: functional, cell-based, Homo sapiens; conditions: Homo sapiens, A253;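 note: growth inhibition of A253 cells, read out with a cell viability assay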
Description: SANGER: Inhibition of human A253 cell growth in a cell viability assay.

## O=C(NCCCNc1nc(Nc2cccc(NC(=O)N3CCCC3)c2)ncc1I)c1cccs1 [BX-795]
[1]
  IC50: > 5 µM
[2]
  IC50: > 5 µM
[3]
  IC50: > 5 µM
[4]
  IC50: 2.74 µM
[5]
  IC50: > 5 µM
[6]
  IC50: > 5 µM
[7]
  IC50: 1.65 µM
[8]
  IC50: > 5 µM
[9]
  IC50: > 5 µM
[10]
  IC50: 1.46 µM
[11]
  IC50: 2.69 µM
[12]
  IC50: > 5 µM
[13]
  IC50: > 5 µM
[14]
  IC50: 2.35 µM
[15]
  IC50: 1.16 µM
[16]
  IC50: > 5 µM
[17]
  IC50: > 5 µM
[18]
  IC50: > 5 µM
[19]
  IC50: > 5 µM
[20]
  IC50: > 5 µM
[21]
  IC50: > 5 µM
[22]
  IC50: > 5 µM
[23]
  IC50: > 5 µM
[24]
  IC50: > 5 µM
[25]
  IC50: > 5 µM
[26]
  IC50: 3.44 µM
[27]
  IC50: 1.29 µM
[28]
  IC50: 0.951 µM
[29]
  IC50: 3.44 µM
[30]
  IC50: > 5 µM
[31]
  IC50: > 5 µM
[32]
  IC50: 4.56 µM
[33]
  IC50: 0.705 µM
[34]
  IC50: > 5 µM
[35]
  IC50: > 5 µM
[36]
  IC50: 0.0368 µM
[37]
  IC50: > 5 µM
[38]
  IC50: 0.971 µM
[39]
  IC50: > 5 µM
[40]
  IC50: > 5 µM
[41]
  IC50: > 5 µM
[42]
  IC50: 2.62 µM
[43]
  IC50: > 5 µM
[44]
  IC50: > 5 µM
[45]
  IC50: 4.02 µM
[46]
  IC50: 4.19 µM
